Experimental data as given in patent publication US9115374B2, “SYN3 compositions and methods” (MERCK SHARP & DOHME CORP., priority 2001, dated 2015).

Assay: Stability of lyophilized formulations of SYN3, concentration by HPLC after reconstitution
Format: physicochemical
Conditions: in the dehydrated powder at 40° C.
Method: Stability testing of the resultant lyophilized products of Examples 13, 14 and 15 yielded the following results:
Stability testing was accomplished by HPLC. Lyophilized formulations were reconstituted (redissolved) with 19.5 ml WFI. Samples were placed in the indicated temperature conditions, incubated for specified times and concentrations were determined by HPLC and compared to initial concentrations.

SMILES: C[C@H](CCC(=O)NCCCN(CCCNC(=O)[C@H](O)[C@@H](O)[C@H](O[C@@H]1O[C@H](CO)[C@H](O)[C@H](O)[C@H]1O)[C@H](O)CO)C(=O)CC[C@@H](C)[C@H]1CC[C@H]2[C@@H]3[C@H](O)C[C@@H]4C[C@H](O)CC[C@]4(C)[C@H]3C[C@H](O)[C@]12C)[C@H]1CC[C@H]2[C@@H]3[C@H](O)C[C@@H]4C[C@H](O)CC[C@]4(C)[C@H]3C[C@H](O)[C@]12C [SYN3, (N —(3-cholamidopropyl)—N —(3-lactobionamidopropyl))-cholamide]
- time SYN3 remains stable: at least 3 months
